According to patent US20260137701A1, “CHOLESTENOIC ACID (CA) AND A SULFATED DERIVATIVE THEREOF, 3[BETA]-SULFATE-5-CHOLESTENOIC ACID (CA3S), AS ENDOGENOUS EPIGENETIC REGULATORS” (priority 2022, published 2026):
Values joined by “and” are separate entries in the source; they are usually repeats but may differ in a detail not shown here. Equal values may be shown once.

Test system: HepG-2 cells
Test: Whole genome bisulfite sequencing (WGBS), differentially methylated regions
Format: cell-based, human
Conditions: for number of DMRs, whole genome, hyper-methylated / number of DMRs, whole genome, hypo-methylated / number of DMRs, whole genome, total: 20 μM CA vs vehicle
Method: After culturing HepG-2 cells in DMEM medium with HG for 72 hours followed by treating with 20 μM CA for 0, 3, 6, 12, and 24 hours, genomic DNA from 5×10^7 cells were extracted using QIAamp® DNA Mini Kit (QIAGEN, Hilden, Germany). Each sample, 6 μg, was sent to CD Genomics Co., Ltd (New York, USA) for analysis of WGBS. Total RNA was isolated using the Promega SV total RNA isolation system (Madison, WI, USA) with DNase treatment. Each sample, 2 μg, were sent to CD Genomics Co., Ltd (New York, USA) for analysis of RNA sequencing. The same samples, 2 μg, was used for the first-strand cDNA synthesis as recommended by the manufacturer (Invitrogen, Carlsbad, CA). RT-qPCR was performed using SYBR Green as the indicator on ABI 7500 Fast Real-Time PCR System (Applied Biosystems, Foster City, CA). Amplifications of j-actin or GAPDH were used as internal controls. Relative messenger RNA (mRNA) expression was quantified with the comparative cycle threshold (Ct) method using a sutiable primer set and was expressed as 2-ΔΔCt as described previously.
Each sample, 1 μg of genomic DNA was fragmented by sonication to a mean size of approximately 200-400 bp, and subsequently used for WGBS library construction using Acegen Bisulfite-Seq Library Prep Kit (Acegen) following the manufacturer's instructions. The methylated adapter-ligated DNAs were purified using 0.8×Agencourt AMPure™ XP magnetic beads and subjected to bisulfite conversion by ZYMO EZ DNA Methylation-Gold™ Kit (Zymo Research Corporation, CA, USA). The converted DNAs were then amplified using 25 μl KAPA HiFi™ HotStart Uracil+ ReadyMix (2×) and 8-bp index primers with a final concentration of 1 μM each. The constructed WGBS libraries were then analyzed by Agilent 2100 Bioanalyzer and quantified by a Qubit fluorometer with Quant-iT™ dsDNA HS Assay Kit (Invitrogen), and finally sequenced on Illumina® Hiseq X™ Ten sequencer. After the preparation of the library, Qubit 2.0 and Agilent 2100 were used respectively to detect the concentration of the library and the Insert Size, and the effective concentration (>2 nM) of the library was quantitatively determined by Q-PCR to ensure the library quality.
Samples were sequenced using the Illumina® HiSeq sequencing platform. Raw data generated on the sequencing platform contained a small percentage of low-quality data, which was then filtered to get high-quality data. Bsmap software was used to perform alignments of bisulfite-treated reads to a reference genome (GRCh37). Metilene software was used to identify differentially methylated regions (DMRs). DAVID software (website located at david.ncifcrf.gov/) was used to test the statistical enrichment of DMR related genes in the Gene Ontology (GO) and Kyoto Encyclopedia of Genes and Genomes (KEGG) pathways.

## CC(CCC[C@@H](C)[C@H]1CC[C@H]2[C@@H]3CC=C4C[C@@H](O)CC[C@]4(C)[C@H]3CC[C@]12C)C(=O)O (stereo partly drawn) [CA, 3β-hydroxy-5-cholestenoic acid]
3 hours
  number of DMRs, whole genome, hyper-methylated: 11,818
  number of DMRs, whole genome, hypo-methylated: 215,747
  number of DMRs, whole genome, total: 227,565
6 hours
  number of DMRs, whole genome, hyper-methylated: 10,537
  number of DMRs, whole genome, hypo-methylated: 497,685
  number of DMRs, whole genome, total: 508,222
12 hours
  number of DMRs, whole genome, hyper-methylated: 14,658
  number of DMRs, whole genome, hypo-methylated: 544,916
  number of DMRs, whole genome, total: 559,574
24 hours
  number of DMRs, whole genome, hyper-methylated: 8,808
  number of DMRs, whole genome, hypo-methylated: 679,051
  number of DMRs, whole genome, total: 687,859
20 μM CA, 3 h
  DMR (Methylation %) ADRA1A promoter region: −30.28%
  DMR (Methylation %) ADRA1B promoter region: 0%
  DMR (Methylation %) ADRA1 promoter region: −30.28%
  DMR (Methylation %) BCL6 promoter region: −20.42%
  DMR (Methylation %) CACNA1D promoter region: −55.12%
  DMR (Methylation %) CALML3 promoter region: −27.06% and −27.05%
  DMR (Methylation %) CALML4 promoter region: −21.08%
  DMR (Methylation %) CAMKK2 promoter region: 0%
  DMR (Methylation %) COX7B promoter region: −30.9%
  DMR (Methylation %) COX8A promoter region: −25.87%
  DMR (Methylation %) CPT1C promoter region: −18.8%
  DMR (Methylation %) CREB3L4 promoter region: 0%
  DMR (Methylation %) CYP1A1 promoter region: −30.07%
  DMR (Methylation %) ESR2 promoter region: 0%
  DMR (Methylation %) FBP1 promoter region: 0%
  DMR (Methylation %) FGF1 promoter region: −54.6%
  DMR (Methylation %) FGF8 promoter region: −19.97%
  DMR (Methylation %) FGFR2 promoter region: −26.28%
  DMR (Methylation %) LDHA promoter region: −29.00%
  DMR (Methylation %) LDHAL6A promoter region: 0%
  DMR (Methylation %) LDHC promoter region: −20.18%
  DMR (Methylation %) LEP promoter region: 0%
  DMR (Methylation %) MIR29A promoter region: −15.46%
  DMR (Methylation %) MIRLET7B promoter region: 0%
  DMR (Methylation %) MTOR promoter region: −20.34%
  DMR (Methylation %) NTRK3 promoter region: 0%
  DMR (Methylation %) PDHA2 promoter region: 0%
  DMR (Methylation %) PDHB promoter region: −21.86%
  DMR (Methylation %) PHKG1 promoter region: −15.73%
  DMR (Methylation %) PPARG promoter region: 0%
  DMR (Methylation %) SDHA promoter region: 0%
  DMR (Methylation %) SDHB promoter region: 0%
  DMR (Methylation %) SPHK2 promoter region: 0%
  DMR (Methylation %) UQCRC1 promoter region: −23.76%
  DMR (Methylation %) VDAC2 promoter region: −27.41%
20 μM CA, 3 hours
  number of DMRs in promoter region, hyper-methylated: 2,323
  number of DMRs in promoter region, hypo-methylated: 12,431
  number of DMRs in promoter region, total: 14,754
20 μM CA, 6 h
  DMR (Methylation %) ADRA1A promoter region: −41.25%
  DMR (Methylation %) ADRA1B promoter region: −33.89%
  DMR (Methylation %) ADRA1 promoter region: −41.25%
  DMR (Methylation %) BCL6 promoter region: −43.30%
  DMR (Methylation %) CACNA1D promoter region: −69.06% and −69.10%
  DMR (Methylation %) CALML3 promoter region: −47.29%
  DMR (Methylation %) CALML4 promoter region: −31.79%
  DMR (Methylation %) CAMKK2 promoter region: −37.97%
  DMR (Methylation %) COX7B promoter region: −83.31%
  DMR (Methylation %) COX8A promoter region: −35.3%
  DMR (Methylation %) CPT1A promoter region: −41.69%
  DMR (Methylation %) CPT1C promoter region: −34.41%
  DMR (Methylation %) CREB3L4 promoter region: −36.38%
  DMR (Methylation %) CYP1A1 promoter region: −55.38%
  DMR (Methylation %) ESR2 promoter region: −33.80%
  DMR (Methylation %) FBP1 promoter region: −39.18%
  DMR (Methylation %) FGF1 promoter region: −37.79%
  DMR (Methylation %) FGF8 promoter region: −53.29%
  DMR (Methylation %) FGFR2 promoter region: −47.13%
  DMR (Methylation %) LDHA promoter region: −35.80%
  DMR (Methylation %) LDHAL6A promoter region: −38.96%
  DMR (Methylation %) LDHC promoter region: −31.45%
  DMR (Methylation %) LEP promoter region: −35.18%
  DMR (Methylation %) MIR29A promoter region: −32.98%
  DMR (Methylation %) MIRLET7B promoter region: −34.85%
  DMR (Methylation %) MTOR promoter region: −37.3%
  DMR (Methylation %) NTRK3 promoter region: −49.89%
  DMR (Methylation %) PDHA2 promoter region: −39.34%
  DMR (Methylation %) PDHB promoter region: −42.31%
  DMR (Methylation %) PHKG1 promoter region: −41.81%
  DMR (Methylation %) PPARG promoter region: −37.32%
  DMR (Methylation %) SDHA promoter region: −37.82%
  DMR (Methylation %) SDHB promoter region: −39.54%
  DMR (Methylation %) SPHK2 promoter region: −60.87%
